Key:
CCRF-CEM = assay: NCI human tumor cell panel: CCRF-CEM (Leukemia); assay type: cell-based
RPMI-8226 = assay: NCI human tumor cell panel: RPMI-8226 (Leukemia); assay type: cell-based
SR = assay: NCI human tumor cell panel: SR (Leukemia); assay type: cell-based
HOP-62 = assay: NCI human tumor cell panel: HOP-62 (Non-Small Cell Lung Cancer); assay type: cell-based
NCI-H23 = assay: NCI human tumor cell panel: NCI-H23 (Non-Small Cell Lung Cancer); assay type: cell-based
NCI-H460 = assay: NCI human tumor cell panel: NCI-H460 (Non-Small Cell Lung Cancer); assay type: cell-based
SW-620 = assay: NCI human tumor cell panel: SW-620 (Colon Cancer); assay type: cell-based
SF-295 = assay: NCI human tumor cell panel: SF-295 (CNS Cancer); assay type: cell-based
SF-539 = assay: NCI human tumor cell panel: SF-539 (CNS Cancer); assay type: cell-based
SNB-75 = assay: NCI human tumor cell panel: SNB-75 (CNS Cancer); assay type: cell-based
LOX IMVI = assay: NCI human tumor cell panel: LOX IMVI (Melanoma); assay type: cell-based
M14 = assay: NCI human tumor cell panel: M14 (Melanoma); assay type: cell-based
SK-MEL-2 = assay: NCI human tumor cell panel: SK-MEL-2 (Melanoma); assay type: cell-based
SK-MEL-5 = assay: NCI human tumor cell panel: SK-MEL-5 (Melanoma); assay type: cell-based
UACC-257 = assay: NCI human tumor cell panel: UACC-257 (Melanoma); assay type: cell-based
UACC-62 = assay: NCI human tumor cell panel: UACC-62 (Melanoma); assay type: cell-based
IGROV1 = assay: NCI human tumor cell panel: IGROV1 (Ovarian Cancer); assay type: cell-based
OVCAR-4 = assay: NCI human tumor cell panel: OVCAR-4 (Ovarian Cancer); assay type: cell-based; conditions: OVCAR-4, read-out: Log10 GI50 (converted)
OVCAR-5 = assay: NCI human tumor cell panel: OVCAR-5 (Ovarian Cancer); assay type: cell-based; conditions: OVCAR-5, read-out: Log10 GI50 (converted)
OVCAR-8 = assay: NCI human tumor cell panel: OVCAR-8 (Ovarian Cancer); assay type: cell-based
786-0 = assay: NCI human tumor cell panel: 786-0 (Renal Cancer); assay type: cell-based
A498 = assay: NCI human tumor cell panel: A498 (Renal Cancer); assay type: cell-based
SN12C = assay: NCI human tumor cell panel: SN12C (Renal Cancer); assay type: cell-based
UO-31 = assay: NCI human tumor cell panel: UO-31 (Renal Cancer); assay type: cell-based
DU-145 = assay: NCI human tumor cell panel: DU-145 (Prostate Cancer); assay type: cell-based
MCF7 = assay: NCI human tumor cell panel: MCF7 (Breast Cancer); assay type: cell-based
MCF7/ADR-RES = assay: NCI human tumor cell panel: MCF7/ADR-RES (Breast Cancer); assay type: cell-based
HS 578T = assay: NCI human tumor cell panel: HS 578T (Breast Cancer); assay type: cell-based; conditions: read-out: Log10 TGI (converted)
MDA-MB-435 = assay: NCI human tumor cell panel: MDA-MB-435 (Breast Cancer); assay type: cell-based
MDA-N = assay: NCI human tumor cell panel: MDA-N (Breast Cancer); assay type: cell-based
BT-549 = assay: NCI human tumor cell panel: BT-549 (Breast Cancer); assay type: cell-based
HOP-92 = assay: NCI human tumor cell panel: HOP-92 (Non-Small Cell Lung Cancer)
[1] = read-out: Log10 GI50 (converted)
[2] = read-out: Log10 TGI (converted)

Work on `OCc1ccc(-c2ccc(-c3ccc(CO)[se]3)s2)s1` [compound 688830] yielded a GI50 (CCRF-CEM; [1]) of 25.7 µM, an IC (TGI) (CCRF-CEM; [2]) greater than 100 µM and a GI50 (RPMI-8226; RPMI-8226, read-out: Log10 GI50 (converted)) of 37.2 µM. It also gave an IC (TGI) (RPMI-8226; RPMI-8226, read-out: Log10 TGI) greater than 100 µM, a GI50 (SR; [1]) of 24.5 µM and an IC (TGI) (SR; [2]) of 72.4 µM. It also gave a GI50 (HOP-62; HOP-62, read-out: Log10 GI50 (converted)) of 0.0617 µM, an IC (TGI) (HOP-62; HOP-62, read-out: Log10 TGI (converted)) of 28.2 µM and a GI50 (NCI-H23; NCI-H23, read-out: Log10 GI50 (converted)) of 85.1 µM. The IC (TGI) (NCI-H23; NCI-H23, read-out: Log10 TGI (converted)) was greater than 100 µM, the GI50 (NCI-H460; NCI-H460, read-out: Log10 GI50 (converted)) was 0.017 µM and the IC (TGI) (NCI-H460; NCI-H460, read-out: Log10 TGI (converted)) was 0.646 µM. For the same molecule, the GI50 (SW-620; SW-620, read-out: Log10 GI50 (converted)) was 0.0398 µM, the IC (TGI) (SW-620; SW-620, read-out: Log10 TGI (converted)) was 25.1 µM and the GI50 (SF-295; SF-295, read-out: Log10 GI50 (converted)) was 20.9 µM. For the same molecule, the IC (TGI) (SF-295; SF-295, read-out: Log10 TGI (converted)) was 56.2 µM, the GI50 (SF-539; SF-539, read-out: Log10 GI50 (converted)) was 15.5 µM and the IC (TGI) (SF-539; SF-539, read-out: Log10 TGI (converted)) was 36.3 µM. It also gave a GI50 (SNB-75; SNB-75, read-out: Log10 GI50 (converted)) of 25.7 µM, an IC (TGI) (SNB-75; SNB-75, read-out: Log10 TGI (converted)) greater than 100 µM and a GI50 (LOX IMVI; [1]) of 13.5 µM. It also gave an IC (TGI) (LOX IMVI; [2]) of 27.5 µM, a GI50 (M14; M14, read-out: Log10 GI50 (converted)) of 37.2 µM and an IC (TGI) (M14; M14, read-out: Log10 TGI (converted)) greater than 100 µM. The GI50 (SK-MEL-2; SK-MEL-2, read-out: Log10 GI50 (converted)) was 39.8 µM, the IC (TGI) (SK-MEL-2; SK-MEL-2, read-out: Log10 TGI (converted)) was greater than 100 µM and the GI50 (SK-MEL-5; SK-MEL-5, read-out: Log10 GI50 (converted)) was 36.3 µM. It also gave an IC (TGI) (SK-MEL-5; SK-MEL-5, read-out: Log10 TGI (converted)) greater than 100 µM, a GI50 (UACC-257; UACC-257, read-out: Log10 GI50 (converted)) of 0.0166 µM and an IC (TGI) (UACC-257; UACC-257, read-out: Log10 TGI (converted)) of 0.0457 µM. It also gave a GI50 (UACC-62; UACC-62, read-out: Log10 GI50 (converted)) of 0.0135 µM, an IC (TGI) (UACC-62; UACC-62, read-out: Log10 TGI (converted)) greater than 100 µM and a GI50 (IGROV1; IGROV-1, IGROV1, read-out: Log10 GI50 (converted)) of 0.0141 µM. The IC (TGI) (IGROV1; IGROV-1, IGROV1, read-out: Log10 TGI (converted)) was 0.174 µM, the GI50 (OVCAR-4) was 0.105 µM and the GI50 (OVCAR-5) was 0.0229 µM. The GI50 (OVCAR-8; OVCAR-8, read-out: Log10 GI50 (converted)) was 6.92 µM, the IC (TGI) (OVCAR-8; OVCAR-8, read-out: Log10 TGI (converted)) was 30.9 µM and the GI50 (786-0; 786-0, read-out: Log10 GI50 (converted)) was 6.46 µM. The IC (TGI) (786-0; 786-0, read-out: Log10 TGI (converted)) was 22.9 µM, the GI50 (A498; A498, read-out: Log10 GI50 (converted)) was less than 0.01 µM and the IC (TGI) (A498; A498, read-out: Log10 TGI (converted)) was 0.0245 µM. It also gave a GI50 (SN12C; [1]) of 49 µM, an IC (TGI) (SN12C; [2]) greater than 100 µM and a GI50 (UO-31; UO-31, read-out: Log10 GI50 (converted)) greater than 100 µM. It also gave an IC (TGI) (UO-31; UO-31, read-out: Log10 TGI (converted)) greater than 100 µM, a GI50 (DU-145; DU-145, read-out: Log10 GI50 (converted)) of 22.9 µM and an IC (TGI) (DU-145; DU-145, read-out: Log10 TGI (converted)) greater than 100 µM. It also gave a GI50 (MCF7; MCF7, read-out: Log10 GI50 (converted)) of 0.0166 µM, an IC (TGI) (MCF7; MCF7, read-out: Log10 TGI (converted)) greater than 100 µM and a GI50 (MCF7/ADR-RES; [1]) of 12.3 µM. For the same molecule, the IC (TGI) (MCF7/ADR-RES; [2]) was greater than 100 µM, the IC (TGI) (HS 578T) was greater than 100 µM and the GI50 (MDA-MB-435; MDA-MB-435, read-out: Log10 GI50 (converted)) was greater than 100 µM. The IC (TGI) (MDA-MB-435; MDA-MB-435, read-out: Log10 TGI (converted)) was greater than 100 µM, the GI50 (MDA-N; [1]) was 97.7 µM and the IC (TGI) (MDA-N; [2]) was greater than 100 µM. For the same molecule, the GI50 (BT-549; BT-549, read-out: Log10 GI50 (converted)) was greater than 100 µM, the IC (TGI) (BT-549; BT-549, read-out: Log10 TGI (converted)) was greater than 100 µM and the GI50 (HOP-92; HOP-92, read-out: Log10 GI50 (converted)) was 28.2 µM. The IC (TGI) (HOP-92; HOP-92, read-out: Log10 TGI) was greater than 100 µM.

Reference: US20040063662A1, “Selenophene anti-tumor agents” (priority 1996, published 2004)
